Where two headings read alike, the source gives them in different places.
System: BRIN-BD11 cells
Assay type: cell-based, rat
Conditions: for Insulin secretion (ng/10^6 cells/20 min), Control: addition alone without peptide: verapamil 50 μM or KCl 30 mM
Method: Culture of insulin-secreting cells: Clonal rat insulin-secreting BRIN-BD11 cells were cultured in RPMI-1640 tissue culture medium containing 10% (v/v) fetal calf serum, 1% (v/v) antibiotics (100 U/ml penicillin, 0.1 mg/ml streptomycin) and 11.1 mM glucose. The production and characterisation of BRIN-BD11 cells are described elsewhere. Cells were maintained in sterile tissue culture flasks (Corning, Glass Works, UK) at 37° C. in an atmosphere of 5% CO2 and 95% air using LEEC incubator (Laboratory Technical Engineering, Nottingham, UK). In three experimental series using purified peptides from Agalychnis calcarifer, Bombina variegata and Rana saharica cells were cultured overnight with 25 μM forskolin, 10 nM PMA or 0.1 μg/ml pertussis toxin prior to acute tests.
Acute insulin release studies: Insulin release from BRIN-BD11 cells was determined using cell monolayers [McClenaghan N H, Barnett C R, Ah-Sing E, Abdel-Wahab Y H, O'Harte F P, Yoon T W, Swanston-Flatt S K and Flatt P R 1996 Characterization of a novel glucose-responsive insulin-secreting cell line, BRIN-BD11, produced by electrofusion. Diabetes 45 1132-1140]. The cells were harvested with the aid of trypsin/EDTA (Gibco), seeded into 24-multiwell plates (Nunc, Rosklide, Denmark) at a density of […] per well, and allowed to attach overnight. Prior to acute test, cells were preincubated for 40 min at 37° C. in a 1.0 ml Krebs Ringer bicarbonate buffer (115 mM NaCl, 4.7 mM KCl, 1.28 MM CaCl2, 1.2 MM KH2PO4, 1.2 mM MgSO4, 10 mM NaHCO3, 5 g/l bovine serum albumin, pH 7.4) supplemented with 1.1 mM glucose. Test incubations were performed for 20 min at 37° C. using the same buffer supplemented with 5.6 mM glucose in the absence (control) and presence of various venom fractions, peaks (equivalent to approx. 25 μl dried HPLC fraction) or test agents as indicated in the Figures. Cell viability after 20 min test incubations was assessed by modified neutral red assay [Hunt S M, Chrzanowska C, Barnnett C R, Brand H N and Fawell J K 1987 A comparison of in vitro cytotoxicity assays and their application to water samples. Alternatives to Laboratory Animals 15 20-29]. After incubation, aliquots of buffer were removed and stored at −20° C. for insulin radiomnimmunoassay [Flatt P R. and Bailey C J 1981 Abnormal plasma glucose and insulin responses in heterozygous lean (ob/+) mice. Diabetologia 20 573-577].

[1] = peptides from Phyllomedusa trinitatis, 5.6 mM glucose, no-peptide control 1.47 ± 0.04
[2] = peptides from Rana saharica, 5.6 mM glucose, mean ± SEM, 3 observations, no-peptide control 1.87 ± 0.06
[3] = peptides from Agalychnis litodryas, 5.6 mM glucose, mean ± SEM, 3 observations, no-peptide control 1.95 ± 0.16

Compound: [Cl-].[K+] [KCl, reference compound]
- Insulin secretion (ng/10^6 cells/20 min), Control (Table 8, 5.6 mM glucose): 5.32 ± 0.38 ΔΔΔ ng/10^6 cells/20 min
- Insulin secretion (ng/10^6 cells/20 min), Control (Table 9, 5.6 mM glucose): 5.33 ± 0.38ΔΔΔ ng/10^6 cells/20 min
- Insulin secretion (ng/10^6 cells/20 min), Control (Table 10, 5.6 mM glucose): 5.33 ng/10^6 cells/20 min

Compound: ALSILRGLEKLAKMGIALTNCKATKKC [Peptide 3.8, 2873.5 Da peptide from Rana palustris, 46% ID to Brevinin-1]
- Insulin release (ng/10^6 cells/20 mins) (peptides from Rana palustris, 5.6 mM glucose, no-peptide control 1.467 ± 0.04): 2.48 ± 0.44 ng/10^6 cells/20 mins

Compound: ALWKDILKNVGKAAGKAVLNTVTDMVNQ [Peptide 2.10, peptide from Phyllomedusa trinitatis, 100% ID to Dermaseptin B IV precursor]
- Insulin release (ng/10^6 cells/20 mins) [1]: 2.356 ± 0.34 ng/10^6 cells/20 mins

Compound: AVITGACERDVQCGGGTCCAVSLI . . . [Peptide 4.23]
- Insulin release (ng/10^6 cells/20 mins) [2]: 4.25 ± 0.17 ng/10^6 cells/20 mins

Compound: AVWKDFLKNIGKAAGKAVLNSVTDMVNE [Peptide 2.9, 3020.0 Da peptide from Agalychnis litodryas, 79% ID to Dermaseptin B IV precursor]
- Insulin release (ng/10^6 cells/20 mins) [3]: 7.46 ± 0.08 ng/10^6 cells/20 mins

Compound: FLPIIAGVAAKVFPKIFCAISKKC [Peptide 4.1, peptide from Rana pipiens identical to pipinin-1]
- Insulin release (ng/10^6 cells/20 mins) (peptides from Rana pipiens, 5.6 mM glucose, mean ± SEM, 3 observations, no-peptide control 2.76 ± 0.13): 4.15 ± 0.01 ng/10^6 cells/20 mins

Compound: FLPLLAGLAANFLPKIFCKITRKC [Peptide 8.3, peptide from Rana saharica matching Brevinin-1E]
- Insulin release (ng/10^6 cells/20 mins) [2]: 3.53 ± 0.06 ng/10^6 cells/20 mins

Compound: GILLDKLKNFAKTAGKGVLQSLLNTASCKLSGQC [Peptide 6.5, peptide from Rana saharica matching Brevinin-2EC]
- Insulin release (ng/10^6 cells/20 mins) [2]: 5.93 ± 0.47 ng/10^6 cells/20 mins

Compound: GILSTIKDFAIKAGKGAAKGLLEMASCKLSGQC [Peptide 5.6, 3309.2 Da peptide from Rana saharica, 67% ID to Brevinin-2EB]
- Insulin release (ng/10^6 cells/20 mins) [2]: 2.86 ± 0.37 ng/10^6 cells/20 mins

Compound: IYNAICPCKHCNKCKPGLLAN [Peptide 25, 2300.0 Da peptide from Bombina variegata, no database match]
- Insulin release (ng/10^6 cells/20 mins): 2.39 ± 0.30 ng/10^6 cells/20 mins

Compound: KGAAKGLLEVASCKLSKSC [Peptide 4.22, 1892.6 Da peptide from Rana saharica, 68.4% ID to Rugosin A]
- Insulin release (ng/10^6 cells/20 mins) [2]: 3.47 ± 0.40 ng/10^6 cells/20 mins

Compound: MLADVFEKIMGD . . . [Peptide 1.7]
- Insulin release (ng/10^6 cells/20 mins) [3]: 4.22 ± 0.48 ng/10^6 cells/20 mins

Compound: XXPLAPFFQAVFK . . . [Peptide 1.8]
- Insulin release (ng/10^6 cells/20 mins) [1]: 2.48 ± 0.37 ng/10^6 cells/20 mins

Reference: patent US20080058269A1, “Insulin Releasing Peptides” (priority 2003, published 2008)
